Measured values: patent US20120046329A1, “MODULATORS OF NOD1 AND NOD2 SIGNALING, METHODS OF IDENTIFYING MODULATORS OF NOD1 AND NOD2 SIGNALING, AND USES THEREOF” (Sanford-Burnham Medical Research Institute, priority 2010, published 2012)
Read-outs that look alike come from different tables or passages of the source.

T1: NOD1 (Homo sapiens, UniProt Q9Y239)
T1 sequence (Q9Y239 1-953): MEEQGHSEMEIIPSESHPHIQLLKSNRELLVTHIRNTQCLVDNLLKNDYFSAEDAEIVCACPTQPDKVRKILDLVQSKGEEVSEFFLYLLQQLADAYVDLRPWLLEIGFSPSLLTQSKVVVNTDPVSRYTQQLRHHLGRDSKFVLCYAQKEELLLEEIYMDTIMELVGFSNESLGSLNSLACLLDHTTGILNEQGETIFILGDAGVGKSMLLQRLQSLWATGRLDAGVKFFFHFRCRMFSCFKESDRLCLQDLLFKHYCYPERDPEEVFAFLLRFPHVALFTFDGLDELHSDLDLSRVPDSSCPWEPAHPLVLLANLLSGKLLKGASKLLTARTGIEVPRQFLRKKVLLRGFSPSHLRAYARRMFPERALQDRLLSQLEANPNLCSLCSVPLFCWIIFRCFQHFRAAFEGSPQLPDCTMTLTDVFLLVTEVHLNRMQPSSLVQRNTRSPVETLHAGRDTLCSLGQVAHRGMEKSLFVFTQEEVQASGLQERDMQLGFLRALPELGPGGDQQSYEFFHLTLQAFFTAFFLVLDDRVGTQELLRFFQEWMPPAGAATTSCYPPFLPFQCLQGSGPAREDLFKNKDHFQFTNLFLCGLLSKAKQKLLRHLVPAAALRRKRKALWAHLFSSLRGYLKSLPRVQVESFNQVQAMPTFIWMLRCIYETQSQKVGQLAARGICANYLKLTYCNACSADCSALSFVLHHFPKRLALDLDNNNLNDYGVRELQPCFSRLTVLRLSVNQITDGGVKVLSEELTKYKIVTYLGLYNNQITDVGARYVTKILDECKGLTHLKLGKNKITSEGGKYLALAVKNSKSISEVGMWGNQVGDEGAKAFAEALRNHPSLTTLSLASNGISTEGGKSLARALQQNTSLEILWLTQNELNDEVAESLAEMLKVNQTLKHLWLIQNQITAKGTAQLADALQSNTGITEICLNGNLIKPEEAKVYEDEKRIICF


Assays:
[1] = system: TNF-α induced NF-κB; test: TNF-α-induced NF-κB luciferase reporter counterscreen, HEK293T; format: cell-based, human; details: Homo sapiens, HEK-293T
[2] = target: NOD2 (Homo sapiens, UniProt Q9HC29); test: NOD2 NF-κB luciferase reporter assay, HEK293T cells over-expressing NOD2; format: cell-based; set-up: expressed in transfected cells; host or cells: HEK293T NF-κB-luciferase cells, lentiviral transduction, sorted by EGFP
[3] = target: T1, NOD1; test: NOD1 NF-κB luciferase reporter assay, γ-tri-DAP-stimulated HEK293T cells; details: for Effect on NOD-driven NF-κB reporter gene activity: data not shown
[4] = target: T2, XIAP/RIP2 interaction (Homo sapiens, UniProt P98170); test: GST-XIAP pull-down of FLAG-RIP2 in vitro; format: binding
T2 construct: made in house; FLAG-RIP2: transfected HEK293T lysate
Method: (A) Schematic representation of GFP-XIAP mutants. (B) Transfected HEK293T cells expressing FLAG-RIP2 together with GFP-XIAPWT, GFPXIAPE219R, GFP-XIAPH223V, GFP-XIAPE219R/H223V or GFP-control were lysed and subjected to immunoprecipitation using anti-FLAG antibody. Immunoprecipitates were analyzed by SDS/PAGE/immunoblotting using anti-FLAG and anti-GFP antibodies. Protein binding was quantified by densitometry analysis, measuring the integrated density value expressed as arbitrary units of the GFP-XIAP bands. Values are expressed as mean±SD of three independent experiments. […] Beads were analyzed by immunoblotting using anti-FLAG-HRP, anti-XIAP/anti-GST or anti-SMAC antibodies as indicated. An aliquot of lysates was also directly analyzed by immunoblotting (“input”).
In another set of experiments, for immunoprecipitation (IP), cells were lysed in IP buffer [20 mM iris pH 7.5, 135 mM NaCl, 1 mM EDTA or 1 mM EGTA (for binding assays involving NODS), 0.5% Nonidet P-40, 10% glycerol, 10 mM NaF, 1 mM DTT, 2 mM Na3VO4, 20 μM leupeptin, 1 mM PMSF, 20 mM N-ethylmaleimide, 0.5 μM iodoacetic acid, 1× protease inhibitor mix (Roche Applied Science)]. […] After incubation overnight bound immune complexes were washed four times in IP buffer, boiled in 2× Laemmli buffer and analyzed by SDS/PAGE and immunoblotted using various antibodies as specifically indicated. […]

[5] = TNF-α-stimulated NF-κB luciferase, HEK293T, read-out: TNF-α IC50

NOD2, sequence (Q9HC29 whole entry): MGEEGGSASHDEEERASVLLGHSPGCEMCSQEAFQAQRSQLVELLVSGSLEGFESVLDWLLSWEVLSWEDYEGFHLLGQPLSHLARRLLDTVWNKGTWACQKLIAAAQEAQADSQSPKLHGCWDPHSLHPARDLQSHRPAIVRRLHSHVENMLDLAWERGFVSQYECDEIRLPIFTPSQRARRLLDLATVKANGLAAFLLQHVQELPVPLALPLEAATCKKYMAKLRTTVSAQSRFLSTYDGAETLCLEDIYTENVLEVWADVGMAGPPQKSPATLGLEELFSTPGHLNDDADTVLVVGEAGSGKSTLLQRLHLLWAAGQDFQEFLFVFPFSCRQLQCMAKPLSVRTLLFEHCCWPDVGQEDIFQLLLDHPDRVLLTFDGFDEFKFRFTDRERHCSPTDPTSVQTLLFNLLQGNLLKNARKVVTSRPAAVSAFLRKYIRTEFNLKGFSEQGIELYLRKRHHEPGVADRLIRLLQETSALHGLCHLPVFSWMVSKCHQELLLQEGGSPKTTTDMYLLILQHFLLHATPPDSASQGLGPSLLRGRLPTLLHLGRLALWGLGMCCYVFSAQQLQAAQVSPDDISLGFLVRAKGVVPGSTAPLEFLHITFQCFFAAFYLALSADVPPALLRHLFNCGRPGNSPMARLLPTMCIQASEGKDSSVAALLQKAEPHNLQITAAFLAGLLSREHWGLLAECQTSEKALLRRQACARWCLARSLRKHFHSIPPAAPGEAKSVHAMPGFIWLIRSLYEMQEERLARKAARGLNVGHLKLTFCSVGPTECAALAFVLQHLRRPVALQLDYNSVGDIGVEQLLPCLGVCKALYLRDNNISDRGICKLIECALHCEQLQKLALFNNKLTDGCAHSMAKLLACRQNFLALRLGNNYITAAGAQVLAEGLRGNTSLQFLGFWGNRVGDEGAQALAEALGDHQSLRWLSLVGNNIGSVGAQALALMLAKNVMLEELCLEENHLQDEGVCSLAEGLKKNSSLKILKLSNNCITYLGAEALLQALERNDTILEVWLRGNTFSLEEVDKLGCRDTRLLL
T2 sequence (P98170 whole entry): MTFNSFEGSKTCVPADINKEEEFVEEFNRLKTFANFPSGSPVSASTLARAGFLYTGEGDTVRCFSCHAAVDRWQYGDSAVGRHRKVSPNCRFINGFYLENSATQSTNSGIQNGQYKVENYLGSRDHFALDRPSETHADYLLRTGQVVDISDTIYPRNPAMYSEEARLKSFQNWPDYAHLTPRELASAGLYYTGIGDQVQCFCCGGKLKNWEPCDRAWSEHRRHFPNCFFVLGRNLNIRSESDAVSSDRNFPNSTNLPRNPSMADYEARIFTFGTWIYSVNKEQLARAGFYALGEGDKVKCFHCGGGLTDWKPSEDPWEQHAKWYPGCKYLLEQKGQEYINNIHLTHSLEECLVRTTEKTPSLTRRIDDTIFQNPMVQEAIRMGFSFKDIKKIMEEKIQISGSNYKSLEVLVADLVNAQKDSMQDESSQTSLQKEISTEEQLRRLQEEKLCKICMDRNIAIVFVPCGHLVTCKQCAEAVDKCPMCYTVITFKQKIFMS

IC50 [2] [µM] | IC50 [3] [µM] | Molecule | IC50 [1, 5] [µM] | further results
> 25 | 12.1 | Cc1ccc(S(=O)(=O)n2c(NCCCO)nc3ccccc32)cc1 [Compound 28] | > 25 | 
 | 1.3 | CCCc1cccc(S(=O)(=O)n2c(N)nc3ccccc32)c1 [Compound 34] | > 100 | 
 | 12.4 | Nc1nc2ccccc2n1S(=O)(=O)c1cccc(C(F)(F)F)c1 [Compound 32] | > 100 | 
12.8 | 17.5 | Cc1ccc(S(=O)(=O)n2c(N)nc3c(N)cccc32)cc1 [Compound 26] | > 25 | 
15.6 | 10.9 | Cc1ccc(S(=O)(=O)n2c(CNC=O)nc3ccccc32)cc1 [Compound 27] | 8.4 | 
 | 2.2 | Nc1nc2ccccc2n1S(=O)(=O)c1cc(Cl)c(Cl)s1 [Compound 37] | 18.4 | 
 | 1.5 | Nc1nc2ccccc2n1S(=O)(=O)c1ccc(-c2ccccc2)cc1 [Compound 39] |  | IC50 ([1]; read-out: TNF-α IC50(μM)): 4.2 µM
 | 3.3 | CC(C)(C)c1cccc(S(=O)(=O)n2c(N)nc3ccccc32)c1 [Compound 35] | 15.6 | 
 | 3.8 | Cc1cccc(S(=O)(=O)n2c(N)nc3ccccc32)c1 [Compound 29] | > 100 | 
 | > 25 | Nc1nc2ccccc2n1S(=O)(=O)c1cccc(OC(F)(F)F)c1 [Compound 33] | > 100 | 
 | 14.5 | COc1cccc(S(=O)(=O)n2c(N)nc3ccccc32)c1 [Compound 36] | > 100 | 
7.6 | 3 | CCOC(=O)c1ccc2nc(N)n(S(=O)(=O)c3ccc(C)cc3)c2c1 [Compound 25] | > 25 | 
3.1 | 1.9 | COc1ccc2c(c1)nc(N)n2S(=O)(=O)c1ccc(C)cc1 [Compound 24] | > 25 | 

The remaining lines, values behind:

Molecule | IC50 [2] [µM] | IC50 [3] [µM] | IC50 [1, 5] [µM] | further results
Nc1nc2ccccc2n1S(=O)(=O)c1ccc([N+](=O)[O-])cc1 [Compound 5] |  |  |  | IC50 ([1]; read-out: TNF-α IC50(μM)): > 20 µM
Cc1ccc(S(=O)(=O)n2c(N)nc3ccc(F)cc32)cc1 [Compound 23] | > 25 | 6.2 | > 25 | 
Cc1ccc(S(=O)(=O)n2c(N)nc3cc(C)ccc32)cc1 [Compound 18] | 15 | 9.3 | > 25 | 
CC(C)c1ccc(S(=O)(=O)n2c(N)nc3ccccc32)cc1 [Compound 12] | > 20 |  | > 20 | 
C[n+]1cc2c3c(ccc2c2ccc4cc5c(cc4c21)OCO5)OCO3 [sanguinarine, reference compound] |  |  |  | inhibition at 4 µM ([3]; HEK-293T, read-out: Luciferase inhibition, hit cut-off): ≥ 50%
Cc1ccc(S(=O)(=O)n2cnc3ccccc32)cc1 [Compound 6] |  |  |  | IC50 ([1]; read-out: TNF-α IC50(μM)): > 20 µM
Nc1nc2ccccc2n1S(=O)(=O)c1ccc(OC(F)(F)F)cc1 [Compound 11] | > 20 |  | > 20 | 
Cc1ccc(S(=O)(=O)n2c(N)nc3cc(F)ccc32)cc1 [Compound 22] | > 25 | 1.8 | > 25 | 
COC1=C2C[C@@H](C)C[C@H](OC)[C@H](O)[C@@H](C)/C=C(\C)[C@H](OC(N)=O)[C@@H](OC)/C=C\C=C(/C)C(=O)NC(=CC1=O)C2=O [geldanomycin, reference compound] |  |  |  | Effect on NOD-driven NF-κB reporter gene activity [3]: suppress
Nc1nc2ccccc2n1S(=O)(=O)c1ccc(F)cc1 [Compound 13] | > 20 |  | > 20 | 
Cc1ccc(S(=O)(=O)n2c(N)nc3ccc(C(F)(F)F)cc32)cc1 [Compound 21] | 10 | 3.9 | 12.3 | 
C=CCNC1=C2C[C@@H](C)C[C@H](OC)[C@H](O)[C@@H](C)/C=C(\C)[C@H](OC(N)=O)[C@@H](OC)C=C/C=C(\C)C(=O)NC(=CC1=O)C2=O [Compound 17-AGG, reference compound] |  |  |  | Effect on NOD-driven NF-κB reporter gene activity [3]: suppress
Nc1nc2ccccc2n1S(=O)(=O)c1ccccc1 [Compound 4] |  |  |  | IC50 ([1]; read-out: TNF-α IC50(μM)): > 20 µM
COc1ccc(-c2ccc(S(=O)(=O)n3c(N)nc4ccccc43)cc2)cc1 [Compound 40] |  |  | 5.2 | 
Cc1ccc(S(=O)(=O)n2c(N)nc3cc(C(F)(F)F)ccc32)cc1 [Compound 20] | 4.7 | 1.6 | 2.3 | 
Nc1nc2ccccc2n1S(=O)(=O)c1cccs1 [Compound 16] | > 25 | 11 | 6.6 | 
Nc1nc2ccccc2n1S(=O)(=O)c1ccc2c(c1)CCC2 [Compound 17] | 0.6 | 0.8 | > 25 | 
Nc1nc2ccccc2n1S(=O)(=O)c1ccc(Cl)c(Cl)c1 [Compound 14] | > 20 |  | > 20 | 
Nc1nc2ccccc2n1S(=O)(=O)c1cccc(Br)c1 [Compound 31] |  | 3.5 |  | IC50 ([1]; read-out: TNF-α IC50(μM)): > 100 µM
SMAC protein: recombinant SMAC protein, dimeric, binds BIR2 and BIR3 domains of XIAP (protein, UniProt Q9NR28 22-239, looked up, His6 tag) Diablo IAP-binding …: LCVPVVANFKKRCFSELIRPWHKTVTIGFGVTLCAVPIAQKSEPHSLSSEALMRRAVSLVTDSTSTFLSQTTYALIEAITEYTKAVYTLTSLYRQYTSLLGKMNSEEEDEVWQVIIGARAEMTSKHQEYLKLETTWMTAVGLSEMAAEAAYQTGADQASITARNHIQLVKLQVEEVHQLSRKAETKLAEAQIEELRQKTQEEGEERAESEQEAYLRED |  |  |  | Effect on XIAP/RIP2 interaction in vitro [4]: concentration-dependent inhibition
